This passage reports inhibition results from patent US20260053171A1, “METHANOGEN INHIBITORS” (AGRIZERONZ LIMITED PARTNERSHIP, priority 2022, published 2026).

This experiment has as its system methane production in rumen fluid. The experiment in a line: Rumen in vitro (RIV) assay, methane production from rumen fluid incubations. The experiment is classed as cell-based, cattle. To be noted: Bos taurus, read-out: RIV % methane reduction +/− SD. The gist of the method: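 Rumen fluid from two fistulated cattle diluted 12 ml in 48 ml buffer with ryegrass substrate, incubated in sealed bottles at 39° C for 24-48 h in duplicate. Inhibitors added in DMF (stocks 1000-fold above highest assay level); total gas, methane and H2 measured automatically; 30 μM BES positive control, no-inhibitor negative control.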

Bounds are passed on as bounds.

Regarding `O=C(O)CCC(=O)N1N=C(c2ccc(-c3cc(F)cc(F)c3)cc2)CC1c1ccc2nccnc2c1` (stereo not drawn) [Compound 66, 4-(3-(3′,5′-Difluoro-[1,1′-biphenyl]-4-yl)-5-(quinoxalin-6-yl)-4,5-dihydro-1H-pyrazol-1-yl)-4-oxobutanoic acid], the inhibition at 2 µM turned out to be 17.5% and the inhibition at 10 µM is 85.4%.
The corresponding values for `CS(=O)(=O)NC(=O)CCC(=O)N1N=C(c2cccc(-c3ccccc3)c2)CC1c1ccc2nccnc2c1` (stereo not drawn) [Compound 68, 4-(3-([1,1′-Biphenyl]-3-yl)-5-(quinoxalin-6-yl)-4,5-dihydro-1H-pyrazol-1-yl)-N-(methylsulfonyl)-4-oxobutanamide] are 20.5 ± 1.4% and 85.4 ± 0.5%.
For `O=C(CCC(=O)N1N=C(c2ccc(Cl)cc2)CC1c1ccc2nccnc2c1)NS(=O)(=O)c1ccccc1` (stereo not drawn) [Compound 70, 4-(3-(4-Chlorophenyl)-5-(quinoxalin-6-yl)-4,5-dihydro-1H-pyrazol-1-yl)-4-oxo-N-(phenylsulfonyl) butanamide] the same measures were 27.1 ± 13.1% and 88.9 ± 1.5%.
For `CN(C)S(=O)(=O)NC(=O)CCC(=O)N1N=C(c2ccc(-c3ccccc3)cc2)CC1c1ccc2nccnc2c1` (stereo not drawn) [Compound 71, 4-(3-([1,1′-Biphenyl]-4-yl)-5-(quinoxalin-6-yl)-4,5-dihydro-1H-pyrazol-1-yl)-N—(N,N-dimethylsulfamoyl)-4-oxobutanamide] the same measures were less than 5% and 70.7%.
As to `CS(=O)(=O)NC(=O)c1cccc(N2N=C(c3ccc(Cl)cc3)CC2c2ccc3nccnc3c2)c1` (stereo not drawn) [Compound 72, 3-(3-(4-Chlorophenyl)-5-(quinoxalin-6-yl)-4,5-dihydro-1H-pyrazol-1-yl)-N-(methylsulfonyl)benzamide], the inhibition at 2 µM stood at 14.3 ± 4.7% and the inhibition at 10 µM was determined as 82.5 ± 2.5%.
Consider `O=C(O)CCC(=O)N1N=C2c3ccc(Cl)cc3CCC2C1c1ccc2nccnc2c1` (stereo not drawn) [Compound 73, 4-(7-Chloro-3-(quinoxalin-6-yl)-3,3a,4,5-tetrahydro-2H-benzo[g]indazol-2-yl)-4-oxobutanoic acid], for which the inhibition at 10 µM came out at 18.8 ± 1.6% and the inhibition at 50 µM came to 78 ± 1.9%.
As to `O=C(O)CCC(=O)N1N=C2c3cc(-c4ccccc4)ccc3CCC2C1c1ccc2nccnc2c1` (stereo not drawn) [Compound 74, 4-Oxo-4-(8-phenyl-3-(quinoxalin-6-yl)-3,3a,4,5-tetrahydro-2H-benzo[g]indazol-2-yl)butanoic acid], the inhibition at 2 µM stood at 9 ± 1.9%, the inhibition at 10 µM was determined as 87.8 ± 0.7% and the inhibition at 50 µM was 97.2 ± 0.5%.
For `O=C(O)CCC(=O)N1N=C2c3ccc(-c4ccccc4)cc3CCC2C1c1ccc2nccnc2c1` (stereo not drawn) [Compound 75, 4-Oxo-4-(7-phenyl-3-(quinoxalin-6-yl)-3,3a,4,5-tetrahydro-2H-benzo[g]indazol-2-yl)butanoic acid] the same measures were 15.8 ± 4.5%, 87.5 ± 0.6% and 92.8 ± 0.5%.
For `O=C(O)CCC(=O)N1N=C2c3ccc(-c4ccc(OC(F)(F)F)cc4)cc3CCC2C1c1ccc2nccnc2c1` (stereo not drawn) [Compound 76, 4-Oxo-4-(3-(quinoxalin-6-yl)-7-(4-(trifluoromethoxy)phenyl)-3,3a,4,5-tetrahydro-2H-benzo[g]indazol-2-yl)butanoic acid] the same measures were 21.1 ± 3.2%, 77.3 ± 1.3% and 96.5%.
Take `O=C(O)CCC(=O)N1N=C(c2ccc3nccnc3c2)CC1c1ccc(Cl)cc1` (stereo not drawn) [Compound 77, 4-(5-(4-Chlorophenyl)-3-(quinoxalin-6-yl)-4,5-dihydro-1H-pyrazol-1-yl)-4-oxobutanoic acid]: the inhibition at 50 µM worked out at 77 ± 0.4%.
In the case of `CCCOc1ccc(-c2ccc(C3=NN(C(=O)CCC(=O)O)C(c4ccc5nccnc5c4)C3)cc2)cc1` (stereo not drawn) [Compound 78, 4-Oxo-4-(3-(4′-propoxy-[1,1′-biphenyl]-4-yl)-5-(quinoxalin-6-yl)-4,5-dihydro-1H-pyrazol-1-yl)butanoic acid], the inhibition at 2 µM came out at 39.8 ± 18.5% and the inhibition at 10 µM came out at 88.8 ± 2%.
The corresponding values for `CCOc1ccc(-c2ccc(C3=NN(C(=O)CCC(=O)O)C(c4ccc5nccnc5c4)C3)cc2)cc1` (stereo not drawn) [Compound 79, 4-(3-(4′-Ethoxy-[1,1′-biphenyl]-4-yl)-5-(quinoxalin-6-yl)-4,5-dihydro-1H-pyrazol-1-yl)-4-oxobutanoic acid] are 25.2 ± 2.5% and 81.5 ± 0.1%.
For the compound `CCCCOc1ccc(-c2ccc(C3=NN(C(=O)CCC(=O)O)C(c4ccc5nccnc5c4)C3)cc2)cc1` (stereo not drawn) [Compound 80, 4-(3-(4′-Butoxy-[1,1′-biphenyl]-4-yl)-5-(quinoxalin-6-yl)-4,5-dihydro-1H-pyrazol-1-yl)-4-oxobutanoic acid], the inhibition at 2 µM came out at 21.9 ± 4.3% and the inhibition at 10 µM worked out at 89.4 ± 2.5%.
For `CC(C)(C)Oc1ccc(-c2ccc(C3=NN(C(=O)CCC(=O)O)C(c4ccc5nccnc5c4)C3)cc2)cc1` (stereo not drawn) [Compound 81, 4-(3-(4′-(tert-Butoxy)-[1,1′-biphenyl]-4-yl)-5-(quinoxalin-6-yl)-4,5-dihydro-1H-pyrazol-1-yl)-4-oxobutanoic acid], the inhibition at 10 µM is 29.8 ± 17.8%.
As for `CC(C)COc1ccc(-c2ccc(C3=NN(C(=O)CCC(=O)O)C(c4ccc5nccnc5c4)C3)cc2)cc1` (stereo not drawn) [Compound 82, 4-(3-(4′-Isobutoxy-[1,1′-biphenyl]-4-yl)-5-(quinoxalin-6-yl)-4,5-dihydro-1H-pyrazol-1-yl)-4-oxobutanoic acid], the inhibition at 2 µM turned out to be 9.3 ± 7.6% and the inhibition at 10 µM was 75.7 ± 4.6%.
Consider `CCC(C)Oc1ccc(-c2ccc(C3=NN(C(=O)CCC(=O)O)C(c4ccc5nccnc5c4)C3)cc2)cc1` (stereo not drawn) [Compound 83, 4-(3-(4′-(sec-Butoxy)-[1,1′-biphenyl]-4-yl)-5-(quinoxalin-6-yl)-4,5-dihydro-1H-pyrazol-1-yl)-4-oxobutanoic acid], for which the inhibition at 2 µM was less than 5% and the inhibition at 10 µM worked out at 69.2 ± 1.8%.
For the compound `O=C(O)CCC(=O)N1N=C(c2ccc(-c3ccc(OC4CC4)cc3)cc2)CC1c1ccc2nccnc2c1` (stereo not drawn) [Compound 84, 4-(3-(4′-Cyclopropoxy-[1,1′-biphenyl]-4-yl)-5-(quinoxalin-6-yl)-4,5-dihydro-1H-pyrazol-1-yl)-4-oxobutanoic acid], the inhibition at 2 µM is 9.8 ± 1% and the inhibition at 10 µM turned out to be 75.1 ± 4.2%.
The corresponding values for `O=C(O)CCC(=O)N1N=C(c2ccc(-c3ccc(OC4CCCC4)cc3)cc2)CC1c1ccc2nccnc2c1` (stereo not drawn) [Compound 85, 4-(3-(4′-(Cyclopentyloxy)-[1,1′-biphenyl]-4-yl)-5-(quinoxalin-6-yl)-4,5-dihydro-1H-pyrazol-1-yl)-4-oxobutanoic acid] are 17.9 ± 7.3% and 71.8 ± 4.5%.
On to `CC(C)Cc1ccc(-c2ccc(C3=NN(C(=O)CCC(=O)O)C(c4ccc5nccnc5c4)C3)cc2)cc1` (stereo not drawn) [Compound 86, 4-(3-(4′-Isobutyl-[1,1′-biphenyl]-4-yl)-5-(quinoxalin-6-yl)-4,5-dihydro-1H-pyrazol-1-yl)-4-oxobutanoic acid], for which the inhibition at 10 µM is 29 ± 8.6%.
As for `CC(C)(C)c1ccc(-c2ccc(C3=NN(C(=O)CCC(=O)O)C(c4ccc5nccnc5c4)C3)cc2)cc1` (stereo not drawn) [Compound 87, 4-(3-(4′-(tert-Butyl)-[1,1′-biphenyl]-4-yl)-5-(quinoxalin-6-yl)-4,5-dihydro-1H-pyrazol-1-yl)-4-oxobutanoic acid], the inhibition at 10 µM is 6 ± 0.5%.
With `O=C(O)CCC(=O)N1N=C(c2ccc(-c3ccc(CC(F)(F)F)cc3)cc2)CC1c1ccc2nccnc2c1` (stereo not drawn) [Compound 88, 4-Oxo-4-(5-(quinoxalin-6-yl)-3-(4′-(2,2,2-trifluoroethyl)-[1,1′-biphenyl]-4-yl)-4,5-dihydro-1H-pyrazol-1-yl)butanoic acid], the inhibition at 2 µM was less than 5% and the inhibition at 10 µM came out at 83 ± 1.1%.
Turning to `COCc1ccc(-c2ccc(C3=NN(C(=O)CCC(=O)O)C(c4ccc5nccnc5c4)C3)cc2)cc1` (stereo not drawn) [Compound 89, 4-(3-(4′-(Methoxymethyl)-[1,1′-biphenyl]-4-yl)-5-(quinoxalin-6-yl)-4,5-dihydro-1H-pyrazol-1-yl)-4-oxobutanoic acid], the inhibition at 10 µM amounted to 21.9 ± 7% and the inhibition at 50 µM stood at 85 ± 1.7%.
As for `COc1cccc(-c2ccc(C3=NN(C(=O)CCC(=O)O)C(c4ccc5nccnc5c4)C3)cc2)c1` (stereo not drawn) [Compound 90, 4-(3-(3′-Methoxy-[1,1′-biphenyl]-4-yl)-5-(quinoxalin-6-yl)-4,5-dihydro-1H-pyrazol-1-yl)-4-oxobutanoic acid], the inhibition at 10 µM was 6.9 ± 2.2% and the inhibition at 50 µM came out at 84.2%.
With `COCCOc1ccc(-c2ccc(C3=NN(C(=O)CCC(=O)O)C(c4ccc5nccnc5c4)C3)cc2)cc1` (stereo not drawn) [Compound 91, 4-(3-(4′-(2-Methoxyethoxy)-[1,1′-biphenyl]-4-yl)-5-(quinoxalin-6-yl)-4,5-dihydro-1H-pyrazol-1-yl)-4-oxobutanoic acid], the inhibition at 2 µM is less than 5% and the inhibition at 10 µM came to 73.2 ± 2.8%.
As for `O=C(O)CCC(=O)N1N=C(c2ccc(-c3ccc(OCC(F)(F)F)cc3)cc2)CC1c1ccc2nccnc2c1` (stereo not drawn) [Compound 92, 4-Oxo-4-(5-(quinoxalin-6-yl)-3-(4′-(2,2,2-trifluoroethoxy)-[1,1′-biphenyl]-4-yl)-4,5-dihydro-1H-pyrazol-1-yl)butanoic acid], the inhibition at 2 µM is 32.1 ± 0.8% and the inhibition at 10 µM amounted to 81.4 ± 3.1%.
As to `CC(C)Sc1ccc(-c2ccc(C3=NN(C(=O)CCC(=O)O)C(c4ccc5nccnc5c4)C3)cc2)cc1` (stereo not drawn) [Compound 93, 4-(3-(4′-(Isopropylthio)-[1,1′-biphenyl]-4-yl)-5-(quinoxalin-6-yl)-4,5-dihydro-1H-pyrazol-1-yl)-4-oxobutanoic acid], the inhibition at 10 µM was determined as 49.1 ± 10.8%.
On the same count and under the same terms, under `O=C(O)CCC(=O)N1N=C(c2ccc(-c3ccc(SC(F)(F)F)cc3)cc2)CC1c1ccc2nccnc2c1` (stereo not drawn) [Compound 94, 4-Oxo-4-(5-(quinoxalin-6-yl)-3-(4′-((trifluoromethyl)thio)-[1,1′-biphenyl]-4-yl)-4,5-dihydro-1H-pyrazol-1-yl)butanoic acid] stands 32.7 ± 1.2%.
